Measurements published in patent publication US8772302B2, “GPR 119 agonists” (Cadila Healthcare Limited, priority 2009, dated 2014).
Where two headings read alike, the source gives them in different places.

Legend:
Sprague Dawley rats = experiment: Feed intake in Sprague Dawley rats; assay type: in vivo, rat; conditions: cumulative feed intake vs vehicle; for inhibition in vivo at 25 mg/kg: Rattus norvegicus, ip
Source text: In Vivo Efficacy Studies: Feed Intake in Sprague Dawley Rats:
Sprague Dawley rats of 6-8 week age are used for this experiment they are kept for acclimatization in reversed light/dark cycle for 15 days. Animals will have free access to a standard chow diet and water during acclimatization period. After 15 days reversed light/dark cycle acclimatization animals are trained for fasting induced feed intake for 5 days till they show consistent feed intake. Grouping was done based on the monitored feed intake during the training days. On treatment day each group of animals are dosed with test compound or vehicle by appropriate routes of administration (orally or intraperitoneally). Exactly 30 min. after treatment, measured amount of standard chow diet is provided and recorded as O-min feed offered. Then subsequently 2, 4, 6 and 24 hour after O-min, feed intake is measured and the cumulative feed intakes are calculated. The change in cumulative feed intake as compared to vehicle treated control at each time point is calculated for test compound.

[1] = biological target: T1, recombinant human GPR 119 receptor (Homo sapiens, UniProt Q8TDV5); experiment: cAMP assay in stable cell line expressing recombinant human GPR 119 receptor; assay type: cell-based; conditions: intracellular cAMP
T1 construct: expressed in transfected cells
T1 sequence (Q8TDV5 1-335): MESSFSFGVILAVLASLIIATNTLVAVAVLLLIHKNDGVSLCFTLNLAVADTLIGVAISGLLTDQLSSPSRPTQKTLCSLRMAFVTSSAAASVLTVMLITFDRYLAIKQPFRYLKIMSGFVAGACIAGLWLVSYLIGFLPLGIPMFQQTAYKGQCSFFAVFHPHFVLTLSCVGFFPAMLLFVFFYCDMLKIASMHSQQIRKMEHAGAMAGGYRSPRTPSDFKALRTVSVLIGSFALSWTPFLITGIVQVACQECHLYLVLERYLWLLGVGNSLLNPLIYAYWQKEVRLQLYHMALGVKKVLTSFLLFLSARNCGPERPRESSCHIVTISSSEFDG
Source text: cAMP assay: A stable cell line expressing recombinant human GPR 119 receptor was established and used to investigate the efficacy of the compounds of the invention based on the intracellular levels of cyclic AMP (cAMP) using commercially available cAMP kits. Compounds of the invention produced a concentration dependent increase in cAMP level and EC50 values of representative compounds were provided in table 1.

C57/BL6 mice = experiment: Oral glucose tolerance test (OGTT) in C57/BL6 mice; assay type: in vivo, mouse; conditions: serum glucose AUC, single oral dose, glucose load 3 gm/kg
Experimental: Oral Glucose Tolerance Tests (OGTT) in C57/BL6 Mice:
C57/BL6 mice of 6-8 week age are used for this experiment. Animals are grouped based on non-fasting serum glucose levels and kept on fasting for overnight (day before OGTT). On the experiment day, […], 30 min post dosing animals are bled for basal glucose level estimation and at the same time glucose load (3 gm/kg) will be administered per orally. Blood is collected at time points corresponding to 20, 40, 60 and 120 min after glucose load administration. Serum is separated for determination of glucose levels and change in area under curve for glucose is calculated and provided in table 4 as % reduction in AUC.

[2] = intraperitoneal, 25 mg/kg, 2 hour
[3] = intraperitoneal, 25 mg/kg, 4 hour
[4] = intraperitoneal, 25 mg/kg, 6 hour
[5] = intraperitoneal, 25 mg/kg, 24 hour

## Cc1c(Oc2ccc([C@H]3CO[S@@](=O)OC3)cc2)ncnc1OC1CCN(c2ncccn2)CC1 [Example 5, cis-5-(4-((5-methyl-6-((1-(pyrimidin-2-yl)piperidin-4-yl)oxy)pyrimidin-4-yl)oxy)phenyl)-1,3,2-dioxathiane 2-oxide]
Sprague Dawley rats; [2]
  % reduction in food in take, 2 hour: 35%
Sprague Dawley rats; [3]
  % reduction in food in take, 4 hour: 17%
Sprague Dawley rats; [4]
  % reduction in food in take, 6 hour: 21%
Sprague Dawley rats; [5]
  % reduction in food in take, 24 hour: 8%

## Cc1c(Oc2ccc([C@H]3CO[S@@](=O)OC3)cc2)ncnc1OC1CCN(C(=O)OC(C)(C)C)CC1 [Example 15, cis-tert-butyl 4-((5-methyl-6-(4-(2-oxido-1,3,2-dioxathian-5-yl)phenoxy)pyrimidin-4-yl)oxy)piperidine-1-carboxylate]
[1]
  EC50: 0.0042 µM
Sprague Dawley rats; intraperitoneal, 25 mg/kg, 2 hour, read-out: % reduction in food in take, 2 hour
  inhibition in vivo at 25 mg/kg: 47%
Sprague Dawley rats; intraperitoneal, 25 mg/kg, 4 hour, read-out: % reduction in food in take, 4 hour
  inhibition in vivo at 25 mg/kg: 31%
Sprague Dawley rats; intraperitoneal, 25 mg/kg, 6 hour, read-out: % reduction in food in take, 6 hour
  inhibition in vivo at 25 mg/kg: 28%
Sprague Dawley rats; intraperitoneal, 25 mg/kg, 24 hour, read-out: % reduction in food in take, 24 hour
  inhibition in vivo at 25 mg/kg: 19%

## CC(C)(C)OC(=O)N1CCC(c2nc(COc3ccc([C@H]4CO[S@@](=O)OC4)cc3)cs2)CC1 [Example 17, cis-tert-butyl 4-(4-((4-(2-oxido-1,3,2-dioxathian-5-yl)phenoxy)methyl)thiazol-2-yl)piperidine-1-carboxylate]
Sprague Dawley rats; [2]
  % reduction in food in take, 2 hour: 34%
Sprague Dawley rats; [3]
  % reduction in food in take, 4 hour: 34%
Sprague Dawley rats; [4]
  % reduction in food in take, 6 hour: 24%
Sprague Dawley rats; [5]
  % reduction in food in take, 24 hour: 13%
C57/BL6 mice
  % reduction in AUC at 50 mg/kg: 34%

## CC(C)(C)OC(=O)N1CCC(c2nc(COc3ccc(C4COS(=O)OC4)cc3)cs2)CC1 (stereo not drawn) [Example 18, trans-tert-butyl 4-(4-((4-(2-oxido-1,3,2-dioxathian-5-yl)phenoxy)methyl)thiazol-2-yl)piperidine-1-carboxylate]
C57/BL6 mice
  % reduction in AUC at 50 mg/kg: 11%

## Cc1c(OCCCC2CCN(C(=O)OC(C)(C)C)CC2)ncnc1Oc1ccc(C2COS(=O)OC2)cc1 (stereo not drawn) [Example 20, cis-tert-butyl 4-(3-((5-methyl-6-(4-(2-oxido-1,3,2-dioxathian-5-yl)phenoxy)pyrimidin-4-yl)oxy)propyl)piperidine-1-carboxylate]
C57/BL6 mice
  % reduction in AUC at 50 mg/kg: 25%

## Cc1c(Oc2ccc(C[C@H]3CO[S@@](=O)OC3)cc2)ncnc1OC1CCN(c2nc(C(C)C)no2)CC1 [Example 29, cis-5-(4-((6-((1-(3-isopropyl-1,2,4-oxadiazol-5-yl)piperidin-4-yl)oxy)-5-methylpyrimidin-4-yl)oxy)benzyl)-1,3,2-dioxathiane 2-oxide]
Sprague Dawley rats; [2]
  % reduction in food in take, 2 hour: 50%
Sprague Dawley rats; [3]
  % reduction in food in take, 4 hour: 24%
Sprague Dawley rats; [4]
  % reduction in food in take, 6 hour: 5%
Sprague Dawley rats; [5]
  % reduction in food in take, 24 hour: 4%

## Cc1c(Oc2ccc(C[C@H]3CO[S@](=O)OC3)cc2)ncnc1OC1CCN(c2nc(C(C)C)no2)CC1 [Example 30, trans-5-(4-((6-((1-(3-isopropyl-1,2,4-oxadiazol-5-yl)piperidin-4-yl)oxy)-5-methylpyrimidin-4-yl)oxy)benzyl)-1,3,2-dioxathiane 2-oxide]
Sprague Dawley rats; [2]
  % reduction in food in take, 2 hour: 39%
Sprague Dawley rats; [3]
  % reduction in food in take, 4 hour: 31%
Sprague Dawley rats; [4]
  % reduction in food in take, 6 hour: 5%
Sprague Dawley rats; [5]
  % reduction in food in take, 24 hour: 9%

## CCc1cnc(N2CCC(Oc3ncnc(Oc4ccc(C[C@H]5CO[S@@](=O)OC5)cc4)c3C)CC2)nc1 [Example 31, cis-5-(4-((6-((1-(5-ethylpyrimidin-2-yl)piperidin-4-yl)oxy)-5-methylpyrimidin-4-yl)oxy)benzyl)-1,3,2-dioxathiane 2-oxide]
Sprague Dawley rats; [2]
  % reduction in food in take, 2 hour: 28%
Sprague Dawley rats; [3]
  % reduction in food in take, 4 hour: 34%
Sprague Dawley rats; [4]
  % reduction in food in take, 6 hour: 28%
Sprague Dawley rats; [5]
  % reduction in food in take, 24 hour: 9%

## CCOC(=O)N1CCC(Oc2ncnc(Oc3ccc(C[C@H]4CO[S@@](=O)OC4)cc3)c2C)CC1 [Example 39, cis-ethyl 4-((5-methyl-6-(4-((2-oxido-1,3,2-dioxathian-5-yl)methyl)phenoxy)pyrimidin-4-yl)oxy)piperidine-1-carboxylate]
[1]
  EC50: 0.094 µM

## Cc1c(Oc2ccc([C@H]3CO[S@@](=O)OC3)cc2)ncnc1OC1CCN(C(=O)Nc2ccc(Cl)cc2Cl)CC1 [Example 45, cis-N-(2,4-dichlorophenyl)-4-((5-methyl-6-(4-(2-oxido-1,3,2-dioxathian-5-yl)phenoxy)pyrimidin-4-yl)oxy)piperidine-1-carboxamide]
Sprague Dawley rats; oral, 50 mg/kg, 2 hour
  % reduction in food in take, 2 hour: 28%
Sprague Dawley rats; oral, 50 mg/kg, 4 hour
  % reduction in food in take, 4 hour: 28%
Sprague Dawley rats; oral, 50 mg/kg, 6 hour
  % reduction in food in take, 6 hour: 16%
Sprague Dawley rats; oral, 50 mg/kg, 24 hour
  % reduction in food in take, 24 hour: 7%

## Cc1c(Oc2ccc([C@H]3CO[S@@](=O)OC3)cc2)ncnc1OC1CCN(C(=O)OC(C)C)CC1 [Example 47, cis-isopropyl 4-((5-methyl-6-(4-(2-oxido-1,3,2-dioxathian-5-yl)phenoxy)pyrimidin-4-yl)oxy)piperidine-1-carboxylate]
Sprague Dawley rats; oral, 50 mg/kg, 2 hour
  % reduction in food in take, 2 hour: 23%
Sprague Dawley rats; oral, 50 mg/kg, 4 hour
  % reduction in food in take, 4 hour: 16%
Sprague Dawley rats; oral, 50 mg/kg, 6 hour
  % reduction in food in take, 6 hour: 3%
Sprague Dawley rats; oral, 50 mg/kg, 24 hour
  % reduction in food in take, 24 hour: 3%

## Cc1c(Oc2ccc(C3COS(=O)OC3)cc2)ncnc1OC1CCN(C(=O)OC(C)C)CC1 (stereo not drawn) [Example 48, trans-isopropyl 4-((5-methyl-6-(4-(2-oxido-1,3,2-dioxathian-5-yl)phenoxy)pyrimidin-4-yl)oxy)piperidine-1-carboxylate]
Sprague Dawley rats; oral, 50 mg/kg, 2 hour
  % reduction in food in take, 2 hour: 32%
Sprague Dawley rats; oral, 50 mg/kg, 4 hour
  % reduction in food in take, 4 hour: 17%
Sprague Dawley rats; oral, 50 mg/kg, 6 hour
  % reduction in food in take, 6 hour: 17%
Sprague Dawley rats; oral, 50 mg/kg, 24 hour
  % reduction in food in take, 24 hour: 10%

## CC(C)(C)OC(=O)N1CCC(c2nc(COc3ccc(CC4COS(=O)OC4)cc3)cs2)CC1 (stereo not drawn) [Example 55, cis-tert-butyl 4-(4-((4-((2-oxido-1,3,2-dioxathian-5-yl)methyl)phenoxy)methyl)thiazol-2-yl)piperidine-1-carboxylate]
Sprague Dawley rats; oral, 50 mg/kg, 2 hour
  % reduction in food in take, 2 hour: 33%
Sprague Dawley rats; oral, 50 mg/kg, 4 hour
  % reduction in food in take, 4 hour: 5.3%

## CCc1cnc(N2CCC(Oc3ccc(C[C@H]4CO[S@@](=O)OC4)cc3)CC2)nc1 [Example 59, cis-5-(4-((1-(5-ethylpyrimidin-2-yl)piperidin-4-yl)oxy)benzyl)-1,3,2-dioxathiane 2-oxide]
Sprague Dawley rats; oral, 50 mg/kg, 2 hour
  % reduction in food in take, 2 hour: 23%
Sprague Dawley rats; oral, 50 mg/kg, 4 hour
  % reduction in food in take, 4 hour: 21%
Sprague Dawley rats; oral, 50 mg/kg, 6 hour
  % reduction in food in take, 6 hour: 15%
Sprague Dawley rats; oral, 50 mg/kg, 24 hour
  % reduction in food in take, 24 hour: 11%

## CCc1cnc(N2CCC(Oc3ccc(C[C@H]4CO[S@](=O)OC4)cc3)CC2)nc1 [Example 60, trans-5-(4-((1-(5-ethylpyrimidin-2-yl)piperidin-4-yl)oxy)benzyl)-1,3,2-dioxathiane 2-oxide]
Sprague Dawley rats; oral, 50 mg/kg, 2 hour
  % reduction in food in take, 2 hour: 39%
Sprague Dawley rats; oral, 50 mg/kg, 4 hour
  % reduction in food in take, 4 hour: 31%
Sprague Dawley rats; oral, 50 mg/kg, 6 hour
  % reduction in food in take, 6 hour: 24%
Sprague Dawley rats; oral, 50 mg/kg, 24 hour
  % reduction in food in take, 24 hour: 5.3%

## Cc1c(Oc2ccc(C[C@H]3CO[S@@](=O)OC3)cc2Cl)ncnc1OC1CCN(C(=O)OC(C)(C)C)CC1 [Example 63, cis-tert-butyl 4-((6-(2-chloro-4-((2-oxido-1,3,2-dioxathian-5-yl)methyl)phenoxy)-5-methylpyrimidin-4-yl)oxy)piperidine-1-carboxylate]
Sprague Dawley rats; oral, 50 mg/kg, 2 hour
  % reduction in food in take, 2 hour: 44%
Sprague Dawley rats; oral, 50 mg/kg, 4 hour
  % reduction in food in take, 4 hour: 41%
Sprague Dawley rats; oral, 50 mg/kg, 6 hour
  % reduction in food in take, 6 hour: 25%
Sprague Dawley rats; oral, 50 mg/kg, 24 hour
  % reduction in food in take, 24 hour: 15%
C57/BL6 mice
  % reduction in AUC at 50 mg/kg: 31%
